Data taken from patent US4605744A, “Imidazole derivatives” (Hoffmann-La Roche Inc., priority 1985, dated 1986).
Structures can show the parent of a compound that is named as a salt.

Key:
Test in all cases: In vitro antibacterial activity (MIC)
Type in all cases: cell-based
[1] = test system: S. marcescens 5805; conditions: Serratia marcescens, 5805, S. marcescens 5805; read-out: MIC
How it was run: (§1)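 Mueller-Hinton broth carries the compound at 128–0.008 μg/ml; diluted drug may be used fresh or stored frozen at -10° to -70° C before use. Wells are seeded with a 10^-2 dilution of overnight culture and incubated overnight at 37° C.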

[2] = test system: E. coli 48; conditions: Escherichia coli, 48, E. coli 48; read-out: MIC
How it was run: as §1

[3] = test system: P. aeruginosa B; conditions: Pseudomonas aeruginosa, read-out: MIC
How it was run: as §1

[4] = test system: S. pneumoniae 6301; conditions: Streptococcus pneumoniae, 6301, S. pneumoniae 6301; read-out: MIC
How it was run: as §1

[5] = test system: E. cloacae 9570A; conditions: Enterobacter cloacae, read-out: MIC
How it was run: as §1

[6] = test system: P. aeruginosa 6148B; conditions: Pseudomonas aeruginosa, read-out: MIC
How it was run: as §1

[7] = test system: C. freundii CDC6; conditions: Citrobacter freundii, CDC6, C. freundii CDC6; read-out: MIC
How it was run: as §1

[8] = test system: S. faecalis C1; conditions: Enterococcus faecalis; S. faecalis C1; read-out: MIC
How it was run: as §1

[9] = test system: S. typhi P58A; conditions: Salmonella enterica, TYPHI
How it was run: as §1

[10] = test system: K. pneumoniae 8357; conditions: Klebsiella pneumoniae, 8357, K. pneumoniae 8357; read-out: MIC
How it was run: as §1

[11] = test system: P. aeruginosa 503-56; conditions: Pseudomonas aeruginosa, 50356, P. aeruginosa 503-56; read-out: MIC
How it was run: as §1

[12] = test system: S. marcescens S5; conditions: Serratia marcescens, S5, S. marcescens S5; read-out: MIC
How it was run: as §1

[13] = test system: P. aeruginosa POW 151; conditions: Pseudomonas aeruginosa, POW151
How it was run: as §1

[14] = test system: E. coli R-563; conditions: Escherichia coli, R563, E. coli R-563; read-out: MIC
How it was run: as §1

[15] = test system: K. pneumoniae 35; conditions: Klebsiella pneumoniae; K. pneumoniae 35; read-out: MIC
How it was run: as §1

[16] = test system: S. marcescens S3; conditions: Serratia marcescens; S. marcescens S3; read-out: MIC
How it was run: as §1

[17] = test system: E. cloacae 6951; conditions: Enterobacter cloacae, 6951, E. cloacae 6951; read-out: MIC
How it was run: as §1

[18] = test system: E. coli 5152; conditions: Escherichia coli, 5152, E. coli 5152; read-out: MIC
How it was run: as §1

[19] = test system: E. cloacae 9295; conditions: Enterobacter cloacae, 9295, E. cloacae 9295; read-out: MIC
How it was run: as §1

[20] = test system: C. freundii 8ASM; conditions: Citrobacter freundii, 8ASM, C. freundii 8ASM; read-out: MIC
How it was run: as §1

[21] = test system: P. aeruginosa 5712; conditions: Pseudomonas aeruginosa; P. aeruginosa 5712; read-out: MIC
How it was run: as §1

[22] = test system: P. aeruginosa 5700; conditions: Pseudomonas aeruginosa, 5700, P. aeruginosa 5700; read-out: MIC
How it was run: as §1

[23] = test system: K. pneumoniae 503-964; conditions: Klebsiella pneumoniae, 503964; K. pneumoniae 503-964; read-out: MIC
How it was run: as §1

[24] = test system: P. rettgeri ATCC 9250; conditions: Providencia rettgeri, ATCC9250, P. rettgeri ATCC 9250; read-out: MIC
How it was run: as §1

[25] = test system: K. pneumoniae HE7; conditions: Klebsiella pneumoniae; K. pneumoniae HE7; read-out: MIC
How it was run: as §1

[26] = test system: S. pneumoniae 6302; conditions: Streptococcus pneumoniae, 6302, S. pneumoniae 6302; read-out: MIC
How it was run: as §1

[27] = test system: P. aeruginosa Stone 130; conditions: Pseudomonas aeruginosa, STONE130, read-out: MIC
How it was run: as §1

[28] = test system: K. pneumoniae 503-994; conditions: Klebsiella pneumoniae, 503994, K. pneumoniae 503-994; read-out: MIC
How it was run: as §1

[29] = test system: E. cloacae 5699; conditions: Enterobacter cloacae, 5699, E. cloacae 5699; read-out: MIC
How it was run: as §1

[30] = test system: E. aerogenes 503-478; conditions: Klebsiella aerogenes, 503478, E. aerogenes 503-478; read-out: MIC
How it was run: as §1

[31] = test system: P. mirabilis 2; conditions: Proteus mirabilis, 2, P. mirabilis 2; read-out: MIC
How it was run: as §1

[32] = test system: E. cloacae P99; conditions: Enterobacter cloacae, P99, E. cloacae P99
How it was run: as §1

[33] = test system: P. vulgaris ATCC 6380; conditions: Proteus vulgaris, ATCC6380, P. vulgaris ATCC 6380; read-out: MIC
How it was run: as §1

[34] = test system: S. aureus Smith; conditions: Staphylococcus aureus, S. aureus Smith; read-out: MIC
How it was run: as §1

[35] = test system: E. cloacae 214; conditions: Enterobacter cloacae, 214, E. cloacae 214; read-out: MIC
How it was run: as §1

[36] = test system: S. aureus Giorgio; conditions: Staphylococcus aureus, S. aureus Giorgio; read-out: MIC
How it was run: as §1

[37] = test system: S. marcescens SM; conditions: Serratia marcescens, read-out: MIC
How it was run: as §1

[38] = test system: S. marcescens S2; conditions: Serratia marcescens; S. marcescens S2; read-out: MIC
How it was run: as §1

[39] = test system: C. diversus CDC 1663-72; conditions: Citrobacter koseri, CDC166372; C. diversus CDC 1663-72; read-out: MIC
How it was run: as §1

[40] = test system: P. mirabilis 620A; conditions: Proteus mirabilis, 620A, P. mirabilis 620A; read-out: MIC
How it was run: as §1

[41] = test system: S. marcescens S147; conditions: Serratia marcescens; S. marcescens S147; read-out: MIC
How it was run: as §1

[42] = test system: S. pyogenes 503-782; conditions: Streptococcus pyogenes, 503782; S. pyogenes 503-782; read-out: MIC
How it was run: as §1

[43] = test system: S. pneumoniae SC; conditions: Streptococcus pneumoniae, read-out: MIC
How it was run: as §1

[44] = test system: K. pneumoniae 5096; conditions: Klebsiella pneumoniae; K. pneumoniae 5096; read-out: MIC
How it was run: as §1

[45] = test system: P. vulgaris 100; conditions: Proteus vulgaris; P. vulgaris 100; read-out: MIC
How it was run: as §1

CC1(C)S[C@@H]2[C@H](N=CN3CCC(CC4=NCCN4)CC3)C(=O)N2[C@H]1C(=O)O [M, [2S-(2alpha,5alpha,6beta)]-6-[[[4-[(4,5-dihydro-1H-imidazol-2-yl)methyl]-1-piperidinyl]methylene]amino]-3,3-dimethyl-7-oxo-4-thia-1-azabicyclo[3.2.0]heptane-2-carboxylic acid hydrochloride]
MIC [1]: 1 µg/mL | MIC [2]: 0.125 µg/mL | MIC [3]: 0.25 µg/mL | MIC [4]: 1 µg/mL | MIC [5]: 0.25 µg/mL | MIC [6]: 32 µg/mL | MIC [7]: 0.125 µg/mL | MIC [8]: 32 µg/mL | MIC [9]: 0.062 µg/mL | MIC [10]: 1 µg/mL | MIC [11]: 32 µg/mL | MIC [12]: 1 µg/mL | MIC [13]: > 128 µg/mL | MIC [14]: 0.062 µg/mL | MIC [15]: 1 µg/mL | MIC [16]: 0.125 µg/mL | MIC [17]: 32 µg/mL | MIC [18]: 16 µg/mL | MIC [19]: 0.5 µg/mL | MIC [20]: 0.062 µg/mL | MIC [21]: 128 µg/mL | MIC [22]: 0.125 µg/mL | MIC [23]: 0.25 µg/mL | MIC [24]: 0.5 µg/mL | MIC [25]: > 128 µg/mL | MIC [26]: 1 µg/mL | MIC [27]: > 128 µg/mL | MIC [28]: 0.25 µg/mL | MIC [29]: 0.25 µg/mL | MIC [30]: 4 µg/mL | MIC [31]: 0.5 µg/mL | MIC [32]: 0.062 µg/mL | MIC [33]: 0.25 µg/mL | MIC [34]: 4 µg/mL | MIC [35]: 0.25 µg/mL | MIC [36]: 2 µg/mL | MIC [37]: 0.125 µg/mL | MIC [38]: 0.25 µg/mL | MIC [39]: 0.062 µg/mL | MIC [40]: > 128 µg/mL | MIC [41]: 0.25 µg/mL | MIC [42]: 32 µg/mL | MIC [43]: 1 µg/mL | MIC [44]: > 128 µg/mL | MIC [45]: 8 µg/mL
